This note sets out measurements from article PMC8815882, “Screening the pandemic response box identified benzimidazole carbamates, Olorofim and ravuconazole as promising drug candidates for the treatment of eumycetoma” (PLoS Neglected Tropical Diseases, 2022).

Like-named read-outs stand apart in the source and are kept apart here.

The subject of this assay is M. mycetomatis genome strain MM55. Nature of the assay: CLSI M38-A2 based in vitro susceptibility screening (XTT or resazurin), growth at fixed concentration. As to conditions: Madurella mycetomatis; for Percent fungal survival at 100 µM: read-out: Percentage survival at 100um, 100 uM A (second replicate column). The assay is classed as cell-based, Madurella mycetomatis. For orientation: Formazan colour is commonly taken as a measure of viable cells.

[1] abbreviates: mean of three replicates, read-out: Percentage survival at 25um, 25 uM mean.
The mark [2] stands for this setting: replicate A, read-out: Percentage survival at 25um, 25 um A.
Where [3] appears, read: replicate B, read-out: Percentage survival at 25um, 25 uM B.
Where [4] appears, read: replicate C, read-out: Percentage survival at 25um, 25 uM C.
Setting [5] is: first replicate column, read-out: Percentage survival at 100um, 100 uM A.
[6] abbreviates: mean of three replicates, read-out: Percentage survival at 100um, 100 uM mean.
Setting [7] is: second replicate column, read-out: Percentage survival at 100um, 100 uM A.
[8] abbreviates: third replicate column, read-out: Percentage survival at 100um, 100 uM A.
The mark [9] stands for this setting: mean, read-out: Percentage survival at 25um, 25 uM mean.
Setting [10] is: mean, read-out: Percentage survival at 100um, 100 uM mean.
[11] abbreviates: replicate (first column), read-out: Percentage survival at 100um, 100 uM A.
[12] abbreviates: replicate (second column), read-out: Percentage survival at 100um, 100 uM A.
[13] abbreviates: replicate (third column), read-out: Percentage survival at 100um, 100 uM A.
[14] abbreviates: mean of replicates, read-out: Percentage survival at 25um, 25 uM mean.
The mark [15] stands for this setting: mean of replicates, read-out: Percentage survival at 100um, 100 uM mean.
The mark [16] stands for this setting: replicate 1, read-out: Percentage survival at 100um, 100 uM A.
[17] abbreviates: replicate 2, read-out: Percentage survival at 100um, 100 uM A.
[18] abbreviates: replicate 3, read-out: Percentage survival at 100um, 100 uM A.
Where [19] appears, read: mean of three, M. mycetomatis MM55, read-out: Percentage survival at 25um, 25 uM mean.
Setting [20] is: replicate A, M. mycetomatis MM55, read-out: Percentage survival at 25um, 25 um A.
Where [21] appears, read: replicate B, M. mycetomatis MM55, read-out: Percentage survival at 25um, 25 uM B.
The mark [22] stands for this setting: replicate C, M. mycetomatis MM55, read-out: Percentage survival at 25um, 25 uM C.
Setting [23] is: mean of three, M. mycetomatis MM55, read-out: Percentage survival at 100um, 100 uM mean.
[24] abbreviates: replicate 1, M. mycetomatis MM55, read-out: Percentage survival at 100um, 100 uM A (first replicate column).
Setting [25] is: replicate 2, M. mycetomatis MM55.
Where [26] appears, read: replicate 3, M. mycetomatis MM55, read-out: Percentage survival at 100um, 100 uM A (third replicate column).
The mark [27] stands for this setting: replicate 1, read-out: Percentage survival at 100um, 100 uM A (first replicate column).
[28] abbreviates: replicate 3, read-out: Percentage survival at 100um, 100 uM A (third replicate column).

For the compound `CCc1c(OCC2CCC2)c2cc(F)ccc2[nH]c1=O` [MMV1634395], the activity at 25 µM under setting [1] was 67.1%, the activity at 25 µM under setting [2] is 59.4%, the activity at 25 µM under setting [3] amounted to 71.5% and the activity at 25 µM under setting [4] was determined as 70.4%. Besides, the activity at 100 µM reads like this: under setting [5], 62.9%; under setting [6], 55.6%; under setting [7], 45.1%; under setting [8], 58.8%.

As for `Oc1cc(-c2cccc3ccccc23)[nH]n1` [MMV422940], the activity at 25 µM by setting is: under setting [9], 79.9%; under setting [2], 89.3%; under setting [3], 79.4%; under setting [4], 70.9%. Moreover, the activity at 100 µM was determined as 81.4% under setting [10], 88.2% under setting [11], 73.6% under setting [12] and 82.2% under setting [13].

For the compound `O=C(O)/C=C/C=C/c1cccc(Oc2cc(Cl)cc(Cl)c2)c1` [MMV1633963], the activity at 25 µM reads like this: (mean of replicates, MM55, read-out: Percentage survival at 25um, 25 uM mean) 44.9%; (replicate A, MM55, read-out: Percentage survival at 25um, 25 um A) 58.7%; (replicate B, MM55, read-out: Percentage survival at 25um, 25 uM B) 58.6%; (replicate C, MM55, read-out: Percentage survival at 25um, 25 uM C) 17.4%. For the same compound, the activity at 100 µM is, setting by setting: (mean of replicates, MM55, read-out: Percentage survival at 100um, 100 uM mean) 7.42%; (replicate 1, MM55, read-out: Percentage survival at 100um, 100 uM A) 7.5%; (replicate 2, MM55, read-out: Percentage survival at 100um, 100 uM A) 5.34%; (replicate 3, MM55, read-out: Percentage survival at 100um, 100 uM A) 9.43%.

As to `COc1ccc(COc2cc3oc(=O)c4cc(C(C)O)ccc4c3cc2OC)cc1` (centres unmarked) [MMV1580799], the activity at 25 µM runs as follows: under setting [1], 95.8%; under setting [2], 100%; under setting [3], 103%; under setting [4], 84.1%. In addition, the activity at 100 µM under setting [5] was determined as 90.3%, the activity at 100 µM under setting [6] was found to be 91.5%, the activity at 100 µM under setting [7] is 87.1% and the activity at 100 µM under setting [8] came to 97%.

On to `CC(Oc1ccc(Cl)cc1Cl)C(=O)NCc1ccc2c(c1)OCO2` (centres unmarked) [MMV1578925], for which the activity at 25 µM under setting [9] came to 48.3%, the activity at 25 µM under setting [2] came to 53.9%, the activity at 25 µM under setting [3] is 36.1% and the activity at 25 µM under setting [4] came out at 54.9%. The activity at 100 µM is, setting by setting: under setting [10], 70.2%; under setting [11], 65.3%; under setting [12], 69%; under setting [13], 76.3%.

Regarding `NC[C@H]1OB(O)c2c(OCCCO)cccc21` [MMV1578566], the activity at 25 µM was 83% under setting [14], 83.4% under setting [2], 92.5% under setting [3] and 72.9% under setting [4]. The activity at 100 µM runs as follows: under setting [15], 97.6%; under setting [16], 93.8%; under setting [17], 96.2%; under setting [18], 103%.

As for `CCc1nc2ccccn2c1C(=O)NCc1ccccc1` [MMV1663457], the activity at 25 µM reads like this: under setting [19], 64.2%; under setting [20], 58%; under setting [21], 69.7%; under setting [22], 64.8%. Also, the activity at 100 µM runs as follows: under setting [23], 64.3%; under setting [24], 52.2%; under setting [26], 86.6%. Also, the Percent fungal survival at 100 µM under setting [25] turned out to be 54%.

Turning to `O=C(Nc1ccc(-c2ccccc2)cc1)C1=C(O)C(Cc2ccccc2)OC1=O` (centres unmarked) [MMV1593531], the activity at 25 µM reads like this: under setting [14], 72.9%; under setting [2], 71.9%; under setting [3], 72%; under setting [4], 74.7%. In addition, the activity at 100 µM came out at 74.5% under setting [15], 74.2% under setting [16], 70.8% under setting [17] and 78.4% under setting [18].

`Fc1ccc(-n2cc(Cn3c(-c4cccc(F)c4)nc4ccccc43)nn2)cc1` [MMV1580850]: the activity at 25 µM reads like this: under setting [19], 60.8%; under setting [20], 55.7%; under setting [21], 55.1%; under setting [22], 71.7%. Besides, the activity at 100 µM was 85.9% under setting [23], 71.4% under setting [24] and 126% under setting [26]. Moreover, under setting [25], the Percent fungal survival at 100 µM was found to be 60.3%.

For the compound `COC(=O)Nc1nc2ccc([S+]([O-])c3ccccc3)cc2[nH]1` (centres unmarked) [MMV002565, Oxfendazole, reference compound], the activity at 25 µM under setting [9] was 87.4%, the activity at 25 µM under setting [2] stood at 91.3%, the activity at 25 µM under setting [3] worked out at 87.4% and the activity at 25 µM under setting [4] was 83.6%. Further, the activity at 100 µM was 76.1% under setting [10], 83.9% under setting [11], 71.1% under setting [12] and 73.2% under setting [13].

In the case of `COc1ccc(NC(=O)CC2Sc3ncnn3C2=O)cc1` (centres unmarked) [MMV1483032], the activity at 25 µM under setting [19] was found to be 78.4%, the activity at 25 µM under setting [20] came out at 82.6%, the activity at 25 µM under setting [21] amounted to 81.9% and the activity at 25 µM under setting [22] was 70.7%. The activity at 100 µM is, setting by setting: under setting [23], 36%; under setting [24], -1.84%; under setting [26], 108%. Further, the Percent fungal survival at 100 µM under setting [25] is 1.55%.

Regarding `C(=C\c1nc2ccccc2[nH]1)/c1ccc2c(c1)OCO2` [MMV1582495], the activity at 25 µM was determined as 76.5% under setting [19], 78.1% under setting [20], 81.8% under setting [21] and 69.8% under setting [22]. In addition, the activity at 100 µM is, setting by setting: under setting [23], 66.2%; under setting [24], 59.7%; under setting [26], 64.2%. In addition, the Percent fungal survival at 100 µM under setting [25] was 74.5%.

On to `O=C(c1ccc(F)cc1)N1CCN2C(=O)c3ccccc3C12c1ccccc1` (centres unmarked) [MMV1165877], for which the activity at 25 µM by setting is: under setting [1], 89.2%; under setting [2], 90%; under setting [3], 95.6%; under setting [4], 82.1%. Further, the activity at 100 µM under setting [6] amounted to 76.1%, the activity at 100 µM under setting [27] turned out to be 85.4% and the activity at 100 µM under setting [28] came to 71.2%. The Percent fungal survival at 100 µM (replicate 2) is 71.7%.

For `CONC(=N)c1ccc(-c2ccc(-c3ccc(C(=N)NOC)cc3)o2)cc1` [MMV000059], the activity at 25 µM was 84.9% under setting [9], 94.2% under setting [2], 81% under setting [3] and 79.4% under setting [4]. In addition, the activity at 100 µM under setting [10] came to 95.8%, the activity at 100 µM under setting [11] turned out to be 101%, the activity at 100 µM under setting [12] is 92% and the activity at 100 µM under setting [13] is 94.6%.

As to `O=C(O)c1sccc1S(=O)(=O)n1ccc2cc(Br)ccc21` [MMV1580855], the activity at 25 µM under setting [1] was 98.9%, the activity at 25 µM under setting [2] is 101%, the activity at 25 µM under setting [3] amounted to 108% and the activity at 25 µM under setting [4] was found to be 88.3%. Also, the activity at 100 µM reads like this: under setting [6], 97.9%; under setting [27], 128%; under setting [28], 79.1%. The Percent fungal survival at 100 µM (replicate 2) was determined as 86.2%.

With `O=c1cc(OCc2ccccc2)ccn1Cc1ccccc1` [MMV1579775], the activity at 25 µM reads like this: under setting [19], 71.3%; under setting [20], 65.3%; under setting [21], 61.6%; under setting [22], 87.1%. Besides, the activity at 100 µM by setting is: under setting [23], 63.4%; under setting [24], 61.9%; under setting [26], 55.4%. Further, under setting [25], the Percent fungal survival at 100 µM was determined as 72.8%.
